Read-outs that look alike come from different tables or passages of the source. Blank lines part the entries; values can stand above or below the molecule they belong to.
What was measured:
[1] = Measurement of tamoxifen metabolites in finger-prick blood (VAMS, UPLC-MS/MS); type: in vivo, human (Indonesian ER+ breast cancer patients); details: for range of metabolite levels before dose adjustment / range of metabolite levels after dose adjustment: IM patients (n=26); for range of metabolite levels before dose adjustment: tamoxifen 20 mg daily; for concentration at 8 weeks: human, whole blood (finger-prick, VAMS), oral, 40 mg daily, read-out: range of metabolite levels after dose adjustment; for range of metabolite levels after dose adjustment: tamoxifen 40 mg daily for two months
Experimental: Finger-prick blood sample was obtained using Volumetric Absorptive Microsampling (VAMS) technique. VAMS extraction was performed in methanol by sonication-assisted extraction method for 25 minutes after 2 hours of VAMS drying. Separation was carried out using Acquity UPLC BEH C1s column (2.1×100 mm; 1.7 μm), with a flow rate of 0.2 mL/minute, and the mobile phase gradient of formic acid 0.1% combined with formic acid 0.1% in acetonitrile for 5 minutes. The UPLC-MS/MS Waters Xevo TQD Triple Quadrupole with MassLynx Software controller (Waters, Milford, USA) was employed in metabolites measurement. Mass detection was carried out utilizing Triple Quadrupole (TOD) with Multiple Reaction Monitoring (MRM) analysis modes and an electrospray ionization source using positive mode. The method was developed in the Bioavailability and Bioequivalence Laboratory of Universitas Indonesia and validated according to FDA and EMA guidelines. The multiple reaction monitoring (MRM) value were set at m/z 372.28>72.22 for TAM; 374.29>58.22 for END; 388.29>72.19 for 4-HT; 358.22>58.09 for NDT; and 260.20>116.20 for propranolol as the internal standard.
(§1) This group of patients were determined based on clinical judgement according to the available guidelines by The National Surgical Oncologist Organization and Ministry of Health in Indonesia (Komite Penanggulangan Kanker Nasional, n.d.), National Comprehensive Cancer Network (NCCN, 2021), and British Columbia Cancer Agency.
(§2) Data and statistical analysis were performed using Microsoft® Excel® for Microsoft 365 and R version 4.0.3. Deviation from Hardy-Weinberg equilibrium was performed on the haplotype frequencies using the chi-square statistical test, where Bonferonni correction was applied to determine the p-value threshold for significant deviation. Analysis of Variance (ANOVA) test was used to see if metabolite levels distribution at baseline were statistically different across all metabolites, followed by a paired T-test between each pair of metabolites when significance was found. Distribution of metabolite levels before and after dose adjustment was compared using a T-test, and the same test was used to compare the distribution of metabolite levels in IMs post-dose adjustment against NMs (baseline). Concerning symptoms related to endocrine therapy post-dose adjustment on IMs were compared against NMs. Chi-square test was performed per symptom to check for the difference between the two groups.

[2] = cited from earlier work
[3] = Endocrine symptoms / side effects of tamoxifen therapy, FACT-ES questionnaire; type: in vivo, human (Indonesian ER+ breast cancer patients)
Experimental: as §1, §2

[4] = CYP2D6 Intermediate Metabolizer (N = 61), baseline
[5] = CYP2D6 Normal Metabolizer (N = 81), baseline
[6] = CYP2D6 Poor Metabolizer (N = 2), baseline
[7] = IM participants, 40 mg tamoxifen daily (N = 22), eight weeks after dose adjustment
[8] = IM participants, 40 mg tamoxifen daily, eight weeks after dose adjustment
[9] = IMs, 40 mg tamoxifen daily, n=26
[10] = NM participants, 20 mg tamoxifen daily (N = 31)
[11] = NMs, 20 mg tamoxifen daily, n=31

Molecule: 4-hydroxytamoxifen
range of metabolite levels before dose adjustment [1]: 1.5 to 9.31 ng/mL | range of metabolite levels after dose adjustment [1]: 3.34 to 12.99 ng/mL

Molecule: CC/C(=C(\c1ccccc1)c1ccc(OCCN(C)C)cc1)c1ccccc1 [tamoxifen]
Peripheral Whole Blood Concentration, Median [1, 4]: 81.72 ng/mL | Peripheral Whole Blood Concentration, Range [1, 4]: 14.22 to 210.39 ng/mL | Peripheral Whole Blood Concentration, Median [1, 5]: 77.46 ng/mL | Peripheral Whole Blood Concentration, Range [1, 5]: 31.22 to 170.82 ng/mL | Peripheral Whole Blood Concentration, Median [1, 6]: 91.49 ng/mL | Peripheral Whole Blood Concentration, Range [1, 6]: 67.49 to 115.48 ng/mL | range of metabolite levels before dose adjustment [1]: 14.22 to 210.39 ng/mL | concentration at 8 weeks [1]: 80.6 to 255 ng/mL | toxicity or side effects on dose escalation ([3]; 40 mg daily versus 20 mg daily, eight weeks after dose adjustment): did not increase potential toxicity or side effects | Cold Sweats: Patients reported side effect (%) [3, 7]: 19.23% | Diarrhea: Patients reported side effect (%) [3, 7]: 0.00% | Headaches: Patients reported side effect (%) [3, 7]: 53.85% | Hot Flashes: Patients reported side effect (%) [3, 7]: 50.00% | Lightheaded (dizzy): Patients reported side effect (%) [3, 7]: 34.62% | Mood swings: Patients reported side effect (%) [3, 7]: 65.38% | Pain in joints: Patients reported side effect (%) [3, 7]: 50.00% | Pain or discomfort with intercourse: Patients reported side effect (%) [3, 7]: 3.85% | Breast sensitivity/tenderness: Patients reported side effect (%) [3, 8]: 53.85% | Irritable: Patients reported side effect (%) [3, 8]: 61.54% | Lost interest in sex: Patients reported side effect (%) [3, 8]: 15.38% | Night sweats: Patients reported side effect (%) [3, 8]: 26.92% | Vaginal bleeding or spotting: Patients reported side effect (%) [3, 8]: 23.08% | Vaginal discharge: Patients reported side effect (%) [3, 8]: 42.31% | Vaginal dryness: Patients reported side effect (%) [3, 8]: 11.54% | Vaginal itching/irritation: Patients reported side effect (%) [3, 8]: 15.38% | Vomiting: Patients reported side effect (%) [3, 8]: 3.85% | Weight gain: Patients reported side effect (%) [3, 8]: 65.38% | breast sensitivity or tenderness, participants reporting [3, 9]: 53.85% | cold sweats, participants reporting [3, 9]: 19.23% | headaches, participants reporting [3, 9]: 53.85% | hotflush, participants reporting [3, 9]: 50% | irritability, participants reporting [3, 9]: 61.54% | lightheaded/dizziness, participants reporting [3, 9]: 34.62% | lost interest in sex, participants reporting [3, 9]: 15.38% | mood swings, participants reporting [3, 9]: 65.83% | night sweats, participants reporting [3, 9]: 26.92% | pain in joints, participants reporting [3, 9]: 50% | pain or discomfort during intercourse, participants reporting [3, 9]: 3.85% | vaginal bleeding or spotting, participants reporting [3, 9]: 23.08% | vaginal discharge, participants reporting [3, 9]: 42.31% | vaginal dryness, participants reporting [3, 9]: 11.54% | vaginal itching or irritation, participants reporting [3, 9]: 15.38% | vomiting, participants reporting [3, 9]: 3.85% | weight gain, participants reporting [3, 9]: 65.83% | diarrhea, participants reporting ([3]; IMs, 40 mg tamoxifen daily, post-dose adjustment): No post-dose adjustment participants reported diarrhea | Breast sensitivity/tenderness: Patients reported side effect (%) [3, 10]: 41.94% | Cold Sweats: Patients reported side effect (%) [3, 10]: 12.90% | Diarrhea: Patients reported side effect (%) [3, 10]: 3.23% | Headaches: Patients reported side effect (%) [3, 10]: 29.03% | Hot Flashes: Patients reported side effect (%) [3, 10]: 35.48% | Irritable: Patients reported side effect (%) [3, 10]: 58.06% | Lightheaded (dizzy): Patients reported side effect (%) [3, 10]: 35.48% | Lost interest in sex: Patients reported side effect (%) [3, 10]: 64.52% | Mood swings: Patients reported side effect (%) [3, 10]: 74.19% | Night sweats: Patients reported side effect (%) [3, 10]: 29.03% | Pain in joints: Patients reported side effect (%) [3, 10]: 67.74% | Pain or discomfort with intercourse: Patients reported side effect (%) [3, 10]: 51.61% | Vaginal bleeding or spotting: Patients reported side effect (%) [3, 10]: 16.13% | Vaginal dryness: Patients reported side effect (%) [3, 10]: 32.26% | Vaginal itching/irritation: Patients reported side effect (%) [3, 10]: 22.58% | Vomiting: Patients reported side effect (%) [3, 10]: 6.45% | Weight gain: Patients reported side effect (%) [3, 10]: 64.52% | breast sensitivity or tenderness, respondents reporting [3, 11]: 41.94% | cold sweats, respondents reporting [3, 11]: 12.9% | diarrhea, respondents reporting [3, 11]: 3.23% | headaches, respondents reporting [3, 11]: 29.03% | hotflush, respondents reporting [3, 11]: 35.48% | irritability, respondents reporting [3, 11]: 58.06% | lightheaded/dizziness, respondents reporting [3, 11]: 35.48% | lost interest in sex, respondents reporting [3, 11]: 64.52% | mood swings, respondents reporting [3, 11]: 74.19% | night sweats, respondents reporting [3, 11]: 29.03% | pain in joints, respondents reporting [3, 11]: 67.74% | pain or discomfort during intercourse, respondents reporting [3, 11]: 51.61% | vaginal bleeding or spotting, respondents reporting [3, 11]: 16.13% | vaginal dryness, respondents reporting [3, 11]: 32.26% | vaginal itching or irritation, respondents reporting [3, 11]: 22.58% | vomiting, respondents reporting [3, 11]: 6.45% | thrombophlebitis, thrombosis, endometriosis, and endometrial cancer ([3]; observed population, short follow up): none of these side effects were observed

Molecule: CC/C(=C(\c1ccc(O)cc1)c1ccc(OCCN(C)C)cc1)c1ccccc1 [4OH-tam]
Peripheral Whole Blood Concentration, Median [1, 4]: 3.27 ng/mL | Peripheral Whole Blood Concentration, Range [1, 4]: 1.5 to 9.31 ng/mL | Peripheral Whole Blood Concentration, Median [1, 5]: 3.07 ng/mL | Peripheral Whole Blood Concentration, Range [1, 5]: 1.5 to 7.66 ng/mL | Peripheral Whole Blood Concentration, Median [1, 6]: 3.24 ng/mL | Peripheral Whole Blood Concentration, Range [1, 6]: 3.06 to 3.43 ng/mL

More lines, main results first:

Peripheral Whole Blood Concentration, Median [1, 4]: 8.33 ng/mL | Peripheral Whole Blood Concentration, Range [1, 4]: 3.17 to 22.97 ng/mL | Peripheral Whole Blood Concentration, Median [1, 5]: 11.98 ng/mL | Peripheral Whole Blood Concentration, Range [1, 5]: 3.55 to 34.77 ng/mL | Peripheral Whole Blood Concentration, Median [1, 6]: 4.52 ng/mL | Peripheral Whole Blood Concentration, Range [1, 6]: 3.94 to 5.11 ng/mL | range of metabolite levels before dose adjustment [1]: 3.17 to 22.97 ng/mL | endoxifen levels in NMs at baseline ([1]; NM patients (n=81), tamoxifen 20 mg/day, baseline): 3.55 to 34.77 ng/mL | concentration at 8 weeks [1]: 7.68 to 23.4 ng/mL | average endoxifen level of IMs ([1]; this study, IMs): 9.6 ng/mL
Molecule: CC/C(=C(\c1ccc(O)cc1)c1ccc(OCCNC)cc1)c1ccccc1 [endoxifen, 4-hydroxy-N-desmethyltamoxifen]
average endoxifen level of IMs ([2]; previous study): 8.1 ng/mL | range of endoxifen level ([2]; study in Singaporean population): 1.74 to 42.8 ng/mL | range of endoxifen level ([2]; study in Swedish population): 2.3 to 16 ng/mL

Peripheral Whole Blood Concentration, Median [1, 4]: 241.55 ng/mL | Peripheral Whole Blood Concentration, Range [1, 4]: 77.61 to 337.29 ng/mL | Peripheral Whole Blood Concentration, Median [1, 5]: 240.59 ng/mL | Peripheral Whole Blood Concentration, Range [1, 5]: 80.63 to 321.88 ng/mL | Peripheral Whole Blood Concentration, Median [1, 6]: 276.45 ng/mL | Peripheral Whole Blood Concentration, Range [1, 6]: 212.5 to 340.41 ng/mL
Molecule: CC/C(=C(\c1ccccc1)c1ccc(OCCNC)cc1)c1ccccc1 [ND-tam]

range of metabolite levels before dose adjustment [1]: 77.61 to 337.29 ng/mL | range of metabolite levels after dose adjustment [1]: 236.8 to 501.9 ng/mL
Molecule: CC/C(=C(\c1ccccc1)c1ccc(OCCNC)cc1)c1ccccc1 [N-desmethyltamoxifen]
